Values quoted from earlier work as cited in patent US7510836B2, “Alpha arteether resistance domain” (priority 2003, dated 2009).

What was measured:
[1] = cited from earlier work
[2] = cited from earlier work; remark: listed apart in the source
malaria = details: cited from earlier work

Compound: C[C@@H]1CC[C@H]2[C@@H](C)C(=O)O[C@@H]3O[C@@]4(C)CC[C@@H]1[C@]32OO4 [Artemisinin, artemisinin]
- half-life [1]: short
- Solubility in most aprotic solvents ([2]; aprotic solvents): readily soluble
- Solubility in water and oil ([2]; water and oil): poorly soluble
- Plasmodicidal property (malaria): high plasmodicidal property
